Biological target: Thymidylate synthase (Homo sapiens, UniProt P04818)
Experiment: Inhibition of compound against thymidylate synthetase

Chain of Thymidylate synthase (P04818 whole entry): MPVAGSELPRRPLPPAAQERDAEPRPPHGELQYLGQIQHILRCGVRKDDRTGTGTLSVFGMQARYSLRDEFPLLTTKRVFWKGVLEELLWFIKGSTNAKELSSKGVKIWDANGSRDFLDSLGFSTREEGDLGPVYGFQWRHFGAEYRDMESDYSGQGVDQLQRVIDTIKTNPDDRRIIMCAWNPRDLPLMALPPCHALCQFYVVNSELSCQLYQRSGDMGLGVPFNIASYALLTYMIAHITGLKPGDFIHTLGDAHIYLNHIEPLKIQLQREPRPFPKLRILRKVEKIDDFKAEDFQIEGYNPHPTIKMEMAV

First: CN1CCN(Cc2cn([C@H]3C[C@H](O)[C@@H](COP(=O)(O)O)O3)c(=O)[nH]c2=O)c2ccccc21
Second: NC1=NC(=O)C2C(=N1)CCC(CNc1ccc(C(=O)NC(CCC(=O)O)C(=O)O)cc1)N2Cc1cn([C@H]2C[C@H](O)[C@@H](COP(=O)(O)O)O2)c(=O)[nH]c1=O (stereo partly drawn)
The Ki of the first is 2-fold higher: 60 nM for the first, 30 nM for the second.

In the case of CN(CC1CNc2nc(N)[nH]c(=O)c2N1Cc1c[nH]c(=O)[nH]c1=O)c1ccc(C(=O)NC(CCC(=O)O)C(=O)O)cc1 (stereo not drawn), the Ki is reported as 750 nM.

Reference: ChEMBL document CHEMBL1124324, “Rational design of enzyme inhibitors: multisubstrate analogue inhibitors” (J Med Chem, 1989)
